Article PMC8197855, “Peptide/β-Peptoid Hybrids with Activity against Vancomycin-Resistant Enterococci: Influence of Hydrophobicity and Structural Features on Antibacterial and Hemolytic Properties” (International Journal of Molecular Sciences, 2021)
Converted amounts (≈) assume the structure as drawn.

Legend:
[1] = system: E. faecium 1798; experiment: microbe, parasite or virus in culture; assay type: cell-based, Enterococcus faecium; conditions: 1798, 24 h
[2] = system: E. faecium 2961; experiment: microbe, parasite or virus in culture; assay type: cell-based, Enterococcus faecium; conditions: 2961, 24 h
[3] = system: E. faecium 3978; experiment: microbe, parasite or virus in culture; assay type: cell-based, Enterococcus faecium; conditions: 3978, 24 h
[4] = system: E. faecium D344R; experiment: microbe, parasite or virus in culture; assay type: cell-based, Enterococcus faecium; conditions: E. faecium D344R, human clinical isolate; 24 h
[5] = system: E. faecalis 38262; experiment: microbe, parasite or virus in culture; assay type: cell-based, Enterococcus faecalis; conditions: 38262, 24 h
[6] = system: E. faecalis 39002; experiment: microbe, parasite or virus in culture; assay type: cell-based, Enterococcus faecalis; conditions: 39002, 24 h
[7] = Hydrophobicity by analytical RP-HPLC (% MeCN at peak elution); assay type: physicochemical
Description: Water was filtered by using an Evoqua LaboStar PRO TWF Ultra Pure Water System prior to use in high-performance liquid chromatography (HPLC). The retention time for each peptidomimetic was determined by analytical HPLC using a Phenomenex Luna C18(2) HST column (100 mm × 3 mm; particle size: 2.5 μm; pore size: 100 Å) on a Shimadzu Prominence and Shimadzu Nexera system using an aqueous MeCN gradient with 0.1% trifluoroacetic acid (TFA) added (eluent A: 5:95 MeCN–H2O + 0.1% TFA; eluent B: 95:5 MeCN–H2O + 0.1% TFA); a flow rate of 0.5 mL/min was used. For the elution of peptidomimetics, a linear gradient of 0% to 60% B over 10 min was used with UV detection at λ = 220 nm. The percentage MeCN at peak elution was calculated from the retention time (tR) by using the following formula:%MeCN = [0.95 × 0.6 × tR/10 + 0.05 × (1 − 0.6 × tR/10)] × 100%

[8] = system: E. faecium (MV388); assay type: cell-based, Enterococcus faecium; conditions: MV388, 24 h
Description: (§1) The minimum bactericidal concentration (MBC) is defined as the lowest concentration of the peptidomimetics that kills 99.9% of the bacterial population. All experiments were performed in three biological replicates.

[9] = system: E. faecalis (MV269); assay type: cell-based, Enterococcus faecalis; conditions: MV269, 24 h
Description: as §1

[10] = system: E. faecium ATCC 19434; experiment: Time-kill kinetics; assay type: cell-based, Enterococcus faecium; conditions: for Reduction in viable bacteria (time-kill): up to 5 h exposure, BHI broth
Description: Time–kill kinetics were established for compounds 2, 5 and 10 in E. faecium ATCC 19434 and E. faecalis ATCC 29212. Prior to the experiments, the isolates were incubated on BHI agar supplemented with 5% calf blood at 37 °C overnight (ON). For each of the strains 1-2 colonies were transferred into 4 mL BHI broth and incubated ON at 37 °C with shaking (180 rpm). OD600 was measured, and then cultures were diluted with BHI broth to an OD600 of 0.05 and grown for approximately 2 h to reach the exponential phase.
One untreated control per strain was prepared. The inoculum was quantified by plating and subsequently enumerated. The initial inocula were approximately 10^7 CFU/mL. Two controls were included, both without bacteria and one including the respective compound without bacteria. All tubes were incubated at 37 °C with shaking (180 rpm). Samples of 100 µL were taken after 1 h, 3 h and 5 h of exposure. Appropriate dilutions were spread onto BHI agar plates and incubated at 37 °C overnight, and then colonies were enumerated. Plates were incubated for 24 h and 48 h, and then checked for the appearance of slow-growing colonies. The experiments were performed with at least three biological replicates for each condition and time point.

[11] = system: E. faecium (MV388); experiment: Membrane integrity, propidium iodide uptake by flow cytometry; assay type: cell-based, Enterococcus faecium; conditions: peptidomimetics at MBC, nisin at MIC; 5 min
Description: (§2) Membrane integrity was assessed by using a propidium iodide (PI) uptake assay, as previously described. In brief, 2 μL of stationary enterococcal cultures were transferred to Falcon round-bottom tubes (14 mL; Corning), each containing 2 mL fresh BHI medium. Cultures were grown to an OD600 of 0.2 at 37 °C with shaking (180 rpm). […] Then, 15 μL of culture was transferred into 980 μL filtered phosphate-buffered saline, and then stained for 5 min with 5 μL of 0.1 mg/mL PI. After staining, the red fluorescence levels (FL3 channel) in cells were recorded by using a BD Biosciences Accuri C6 flow cytometer (Becton Dickinson). The settings of the flow cytometer were as follows: 25,000 recorded events at an FSC threshold of 15,000, and medium flow rate. The gating of the stained cell population and analysis of flow cytometry data were performed in CFlow (BD Accuri). The assessment of membrane integrity was performed in three biological replicates for each condition.

[12] = system: E. faecalis (MV269); experiment: as above; assay type: cell-based, Enterococcus faecalis; conditions: peptidomimetics at MBC, nisin at MIC; 5 min
Description: as §2

[13] = system: enterococci; experiment: Checkerboard assay, overall synergy statements; assay type: cell-based, Enterococcus faecium and Enterococcus faecalis; conditions: for Resensitization of two vancomycin-resistant E. faecium isolates toward vancomycin / Sensitization of enterococcal isolates to gentamicin: sub-inhibitory concentrations; for Synergy with conventional antibiotics: vancomycin, gentamicin, ciprofloxacin, linezolid, rifampicin or azithromycin, synergy = FICI ≤ 0.5
Description: The strain culture preparation and final volume were the same as in the MIC assay. […] The plates were incubated for 24 h at 37 °C without shaking. […] All experiments were performed in two biological replicates.
To evaluate the effect of the combinations, the fractional inhibitory concentration index (FICI) was calculated for each combination according to:ΣFIC = FICA + FICB = (CA/MICA) + (CB/MICB)
The drug interaction was scored as follows: synergy—FICI ≤ 0.5; no interaction—FICI > 0.5–4; antagonism—FICI > 4 [40].

Row | Compound | Minimum inhibitory concentration [1] [µg/mL] | Minimum inhibitory concentration [2] [µg/mL] | Minimum inhibitory concentration [3] [µg/mL] | Minimum inhibitory concentration [4] [µg/mL] | Minimum inhibitory concentration [5] [µg/mL] | Minimum inhibitory concentration [6] [µg/mL] | Hydrophobicity, Luna C18(2) HST (0–60% B; 10 min), retention converted into % MeCN [7] [% MeCN] | Minimum bactericidal concentration [8] [µg/mL] | Minimum bactericidal concentration [9] [µg/mL] | Bactericidal or bacteriostatic mode of action ([10]; 8 µg/mL (4× MIC)) | Reduction in viable bacteria (time-kill) ([10]; 4× MIC) | Propidium iodide (PI) uptake, membrane integrity [11] | Propidium iodide (PI) uptake, membrane integrity [12] | Resensitization of two vancomycin-resistant E. faecium isolates toward vancomycin [13] | Sensitization of enterococcal isolates to gentamicin [13] | Synergy with conventional antibiotics [13] | Reduction in viable cell counts within 1 h ([10]; 4× MIC, within 1 h of exposure)
1 | CC(=O)N[C@@H](CCCCNC(=N)N)C(=O)N(CCC(=O)N[C@@H](CCCCNC(=N)N)C(=O)N(CCC(=O)N[C@@H](CCCCNC(=N)N)C(=O)N(CCC(=O)N[C@@H](CCCCNC(=N)N)C(=O)N(CCC(=O)N[C@@H](CCCCNC(=N)N)C(=O)N(CCC(=O)N[C@@H](CCCCNC(=N)N)C(=O)N(CCC(N)=O)[C@@H](C)C1CCCCC1)[C@@H](C)C1CCCCC1)[C@@H](C)C1CCCCC1)[C@@H](C)C1CCCCC1)[C@@H](C)C1CCCCC1)[C@@H](C)C1CCCCC1 [Compound 2, Ac-[hArg-βNsce]6-NH2] | 2 (≈ 0.922 µM) | 2 (≈ 0.922 µM) | 2 (≈ 0.922 µM) | 2 (≈ 0.922 µM) | 4 (≈ 1.84 µM) | 2 (≈ 0.922 µM) | 51.6 | 4 to 8 | 8 (≈ 3.69 µM) | bactericidal | approximately 3 log | significant accumulation of PI | significant accumulation of PI | this was not the case | did not sensitize | no synergy | 
2 | CC(=O)N[C@@H](CCCCNC(=N)N)C(=O)N(CCC(=O)N[C@@H](CCCCN)C(=O)N(CCC(=O)N[C@@H](CCCCNC(=N)N)C(=O)N(CCC(=O)N[C@@H](CCCCN)C(=O)N(CCC(=O)N[C@@H](CCCCNC(=N)N)C(=O)N(CCC(=O)N[C@@H](CCCCN)C(=O)N(CCC(N)=O)[C@@H](C)c1ccccc1)[C@@H](C)C1CCCCC1)[C@@H](C)c1ccccc1)[C@@H](C)C1CCCCC1)[C@@H](C)c1ccccc1)[C@@H](C)C1CCCCC1 [Compound 5, Ac-[hArg-βNsce-Lys-βNspe]3-NH2] | 2 (≈ 0.988 µM) | 2 (≈ 0.988 µM) | 2 (≈ 0.988 µM) | 2 (≈ 0.988 µM) | 8 to 16 | 8 to 16 | 46.6 | 128 (≈ 63.2 µM) | 16 (≈ 7.91 µM) |  | 1.5 log | less perturbation of membrane integrity | less perturbation of membrane integrity | this was not the case | did not sensitize | no synergy | no reduction in viable cell counts
3 | CCCCCCCC(=O)N[C@@H](CCCCN)C(=O)N(CCC(=O)N[C@@H](CCCCN)C(=O)N(CCC(=O)N[C@@H](CCCCN)C(=O)N(CCC(=O)N[C@@H](CCCCN)C(=O)N(CCC(=O)N[C@@H](CCCCN)C(=O)N(CCC(=O)N[C@@H](CCCCN)C(=O)N(CCC(N)=O)[C@@H](C)c1ccccc1)[C@@H](C)c1ccccc1)[C@@H](C)c1ccccc1)[C@@H](C)c1ccccc1)[C@@H](C)c1ccccc1)[C@@H](C)c1ccccc1 [Compound 10, Oct-[Lys-βNspe]6-NH2] | 2 to 4 | 4 (≈ 2.04 µM) | 2 to 4 | 4 (≈ 2.04 µM) | 16 (≈ 8.15 µM) | 8 (≈ 4.07 µM) | 47.2 | 16 (≈ 8.15 µM) | 32 (≈ 16.3 µM) |  | 4 log | less perturbation of membrane integrity | less perturbation of membrane integrity | this was not the case | did not sensitize | no synergy | 
